Holding throughout (format): cell-based
Series [1] addresses T1, ERG (Homo sapiens, UniProt P11308).
T1 sequence (P11308 1-486 isoform P11308-3): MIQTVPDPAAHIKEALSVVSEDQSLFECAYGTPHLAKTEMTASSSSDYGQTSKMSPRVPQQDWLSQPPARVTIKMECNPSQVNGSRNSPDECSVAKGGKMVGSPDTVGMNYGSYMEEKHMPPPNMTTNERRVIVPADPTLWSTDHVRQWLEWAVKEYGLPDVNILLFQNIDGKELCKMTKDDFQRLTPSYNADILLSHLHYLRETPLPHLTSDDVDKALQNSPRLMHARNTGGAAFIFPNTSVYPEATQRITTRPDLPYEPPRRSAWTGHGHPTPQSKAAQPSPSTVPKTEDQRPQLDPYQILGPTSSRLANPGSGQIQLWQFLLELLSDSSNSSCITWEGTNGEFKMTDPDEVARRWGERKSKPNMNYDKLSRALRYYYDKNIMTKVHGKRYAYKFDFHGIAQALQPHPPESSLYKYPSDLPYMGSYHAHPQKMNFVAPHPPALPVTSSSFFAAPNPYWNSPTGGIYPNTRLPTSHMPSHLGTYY
Briefly: ERG-dependent reporter assay in HEK293 cells. The following applies: PUx3-Luc reporter, 48 hours, designated doses. Details: expressed in transfected cells; host or cells: HEK293. The protocol: (§1) HEK293 cells were transiently transfected with empty vector (for the NT) or ERG-expressing plasmid as well as pRL-TK (internal control) and PUx3-Luc reporter. Cells were then exposed to DMSO vehicle or compounds at designated doses for 48 hours. Experiments were done in triplicate.

Series [2] deals with T2, ETV1 (Homo sapiens, UniProt P50549).
T2 construct: expressed in transfected cells; host or cells: HEK293
T2 sequence (P50549 1-477): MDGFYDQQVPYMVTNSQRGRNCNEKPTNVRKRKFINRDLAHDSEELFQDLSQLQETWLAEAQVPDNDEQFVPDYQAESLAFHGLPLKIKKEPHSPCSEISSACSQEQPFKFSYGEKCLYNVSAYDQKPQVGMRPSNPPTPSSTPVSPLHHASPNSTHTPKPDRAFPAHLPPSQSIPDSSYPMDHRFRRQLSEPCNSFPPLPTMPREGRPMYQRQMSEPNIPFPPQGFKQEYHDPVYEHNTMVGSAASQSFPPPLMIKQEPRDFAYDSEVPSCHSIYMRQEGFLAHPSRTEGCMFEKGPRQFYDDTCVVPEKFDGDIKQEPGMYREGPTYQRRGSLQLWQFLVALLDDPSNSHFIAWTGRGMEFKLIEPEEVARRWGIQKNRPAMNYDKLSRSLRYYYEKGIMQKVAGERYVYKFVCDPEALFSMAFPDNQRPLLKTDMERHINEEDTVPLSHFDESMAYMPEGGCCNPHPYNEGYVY
Briefly: ETV1-dependent reporter assay in HEK293 cells. The following applies: 48 hours. The protocol: as §1
Experiments were done as described above in FIG. 1.1a) except that ERG plasmid was replaced by ETV1 plasmid.

For series [3], the target named is T3, human STING (hSTING) (Homo sapiens, UniProt Q86WV6).
T3 construct: expressed in transfected cells; host or cells: 293T
T3 sequence (Q86WV6 whole entry H232R): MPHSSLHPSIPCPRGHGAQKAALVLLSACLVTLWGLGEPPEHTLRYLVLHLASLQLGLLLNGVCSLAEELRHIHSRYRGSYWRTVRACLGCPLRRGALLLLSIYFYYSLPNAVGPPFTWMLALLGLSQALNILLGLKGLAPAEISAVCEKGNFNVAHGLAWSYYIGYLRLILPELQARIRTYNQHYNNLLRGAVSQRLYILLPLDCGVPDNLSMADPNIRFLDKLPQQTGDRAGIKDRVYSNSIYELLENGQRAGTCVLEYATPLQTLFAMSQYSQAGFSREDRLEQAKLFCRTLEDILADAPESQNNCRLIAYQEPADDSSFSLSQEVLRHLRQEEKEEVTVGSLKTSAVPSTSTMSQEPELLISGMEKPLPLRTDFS
Briefly: hSTING ISRE-luc reporter assay in 293T cells. The following applies: 24 hours. On the procedure:
ISRE-luc (reporter), pRL-TK (internal control) and hSTING-expressing plasmids were transiently transfected into 293T cells. Cells were exposed to DMSO vehicle control or compounds for 24 hours. Experiments were done in triplicate.

For series [4], the target named is T4, human GATA2 (Homo sapiens, UniProt P23769).
T4 construct: expressed in transfected cells; host or cells: IHH
T4 sequence (P23769 1-480): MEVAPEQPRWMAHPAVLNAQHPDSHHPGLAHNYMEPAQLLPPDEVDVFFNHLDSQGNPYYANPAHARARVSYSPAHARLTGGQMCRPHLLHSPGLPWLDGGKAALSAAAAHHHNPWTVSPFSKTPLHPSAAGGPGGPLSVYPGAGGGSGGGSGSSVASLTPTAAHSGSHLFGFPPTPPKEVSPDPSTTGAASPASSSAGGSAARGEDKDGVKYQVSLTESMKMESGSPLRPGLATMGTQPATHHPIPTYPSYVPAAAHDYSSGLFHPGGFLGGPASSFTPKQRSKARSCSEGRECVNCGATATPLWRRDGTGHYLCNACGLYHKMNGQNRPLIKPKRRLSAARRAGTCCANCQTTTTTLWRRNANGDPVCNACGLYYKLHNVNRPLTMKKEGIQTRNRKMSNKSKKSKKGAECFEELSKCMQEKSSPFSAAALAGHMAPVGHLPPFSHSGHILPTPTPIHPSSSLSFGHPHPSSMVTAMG
Briefly: GATA2-dependent reporter assay in IHH cells. The following applies: GATA-Luc reporter, 48 h. On the procedure:
K7174 is a known GATA2 inhibitor. The IHH cells were transiently transfected with empty vector (for the NT) or human GATA2-expressing plasmid as well as pRL-TK (internal control) and GATA-Luc reporter plasmids. Cells were exposed to DMSO vehicle or compounds for 48 h. Experiments were in triplicate.

Series [5] has as its target T5, human GATA3 (Homo sapiens, UniProt P23771).
T5 construct: expressed in transfected cells; host or cells: IHH
The series can be described thus: GATA3-dependent reporter assay in IHH cells. The following applies: 48 hours. The protocol:
The IHH cells were transiently transfected with empty vector (for the NT) or human GATA3-expressing plasmid as well as pRL-TK (internal control) and GATA-Luc reporter plasmids. Cells were exposed to DMSO vehicle or compounds for 48 hours. Experiments were done in triplicate.

The test system of series [6] is hSTING and/or mSTING. Briefly: hSTING- or mSTING-dependent ISRE-luc reporter assay in 293T cells. The following applies: 24 hours. On the procedure: ISRE-luc (reporter), pRL-TK (internal control) and hSTING- or mSTING-expressing plasmids were transiently transfected into 293T cells. Cells were exposed to DMSO vehicle control or compounds for 24 hours. Experiments were done in triplicate.

T5 sequence (P23771 whole entry): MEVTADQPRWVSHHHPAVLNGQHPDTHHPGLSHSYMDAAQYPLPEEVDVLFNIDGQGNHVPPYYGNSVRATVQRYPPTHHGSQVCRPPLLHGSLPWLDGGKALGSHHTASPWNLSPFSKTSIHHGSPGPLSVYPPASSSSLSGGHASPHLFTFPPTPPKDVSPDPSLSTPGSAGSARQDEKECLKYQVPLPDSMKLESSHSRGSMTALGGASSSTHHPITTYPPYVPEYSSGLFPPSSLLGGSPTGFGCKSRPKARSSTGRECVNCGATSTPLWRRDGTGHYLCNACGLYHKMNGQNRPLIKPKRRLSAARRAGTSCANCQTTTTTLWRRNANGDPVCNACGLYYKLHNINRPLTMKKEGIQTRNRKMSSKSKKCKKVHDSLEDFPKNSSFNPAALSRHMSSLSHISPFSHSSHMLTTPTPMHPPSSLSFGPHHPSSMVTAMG

Take `COc1ccc2[nH]c(C)c(Cc3nc(-c4ccccc4)c(-c4ccccc4)o3)c2c1` [Compound 639]: in series [1], the “ERG inhibition in ERG-dependent reporter assay” value (shortened to “ERG inhibition”) was “ERG inhibitors”.

Consider `COc1cccc(-c2nc(CCc3c[nH]c4ccccc34)oc2-c2cccc(OC)c2)c1` [Compound 641], for which the “ETV1 inhibition in ETV1-dependent reporter assay” value (from here on “ETV1 inhibition”) in series [2] was “ETV1 inhibitors”. The “activation of hSTING in ISRE-luc reporter assay” value in series [3] was “activate hSTING”.

On to `Fc1cccc(-c2nc(Cc3c[nH]c4ccccc34)oc2-c2cccc(F)c2)c1` [Compound 650], for which the “ETV1 inhibition” value in series [2] was “ETV1 inhibitors”. Also, the “GATA2 inhibition in GATA2-dependent reporter assay” value (“GATA2 inhibition” below) in series [4] is reported as “GATA2 inhibitors”. Besides, the “activation of hSTING in ISRE-luc reporter assay” value in series [3] is given as “activate hSTING”. The “activity against GATA3 in GATA3-dependent reporter assay” value (from here on “activity against GATA3”) in series [5] (10 μM) was “active against GATA3”.

With `Cc1cccc(-c2nc(Cc3c[nH]c4ccccc34)oc2-c2cccc(C)c2)c1` [Compound 651], in series [2], the “ETV1 inhibition” value was “ETV1 inhibitors”. Also, the “ERG inhibition” value in series [1] is listed as “ERG inhibitors”.

Turning to `FC(F)(F)c1ccc(-c2nc(Cc3c[nH]c4ccccc34)oc2-c2ccc(C(F)(F)F)cc2)cc1` [Compound 653], the “ETV1 inhibition” value in series [2] is recorded as “ETV1 inhibitors”. Further, the “activation of hSTING in ISRE-luc reporter assay” value in series [3] is recorded as “activate hSTING”.

As to `Fc1ccccc1-c1nc(Cc2c[nH]c3ccccc23)oc1-c1ccccc1F` [Compound 655], in series [2], the “ETV1 inhibition” value is given as “ETV1 inhibitors”.

Take `FC(F)(F)c1cccc(-c2nc(Cc3c[nH]c4ccccc34)oc2-c2cccc(C(F)(F)F)c2)c1` [Compound 656]: in series [2], the “ETV1 inhibition” value was “ETV1 inhibitors”. In addition, the “activation of hSTING in ISRE-luc reporter assay” value in series [3] is on record as “activate hSTING”.

On to `C(=C\c1c[nH]c2ccccc12)/c1nc(-c2ccccc2)c(-c2ccccc2)o1` [Compound 657], for which, in series [2], the “ETV1 inhibition” value is “ETV1 inhibitors”.

In the case of `FC(F)(F)c1ccccc1-c1nc(Cc2c[nH]c3ccccc23)oc1-c1ccccc1C(F)(F)F` [Compound 659], in series [1], the “ERG inhibition” value is on record as “ERG inhibitors”.

`Clc1ccc(-c2nc(Cc3c[nH]c4ccccc34)oc2-c2ccc(Cl)cc2)cc1` [Compound 661]: the “ETV1 inhibition” value in series [2] was “ETV1 inhibitors”. In addition, the “ERG inhibition” value in series [1] was “ERG inhibitors”.

Take `Clc1ccccc1-c1nc(Cc2c[nH]c3ccccc23)oc1-c1ccccc1Cl` [Compound 662]: the “ETV1 inhibition” value in series [2] was “ETV1 inhibitors”. In addition, in series [1], the “ERG inhibition” value is listed as “ERG inhibitors”.

Regarding `Oc1cccc(-c2nc(CCCc3c[nH]c4ccccc34)oc2-c2cccc(O)c2)c1` [Compound 676], the “GATA2 inhibition” value in series [4] is “GATA2 inhibitors”. The “activation of hSTING in ISRE-luc reporter assay” value in series [3] is on record as “activate human STING (hSTING)”. Also, the “activity against GATA3” value in series [5] (10 μM) and in series [5] (compounds at 5 μM) was “inactive against GATA3” in each case.

In the case of `Fc1ccccc1-c1nc(CCCc2c[nH]c3ccccc23)oc1-c1ccccc1F` [Compound 678], in series [1], the “ERG inhibition” value is “ERG inhibitors”. The “activation of hSTING in ISRE-luc reporter assay” value in series [3] is “activate hSTING”.

As for `C(=C\c1nc(-c2ccccc2)c(-c2ccccc2)o1)/c1ccoc1` [Compound 686], the “GATA2 inhibition” value in series [4] is “GATA2 inhibitors”. The “activity against GATA3” value in series [5] (10 μM) is “active against GATA3”.

For `FC(F)(F)c1cccc(Cc2nc(-c3ccccc3)c(-c3ccccc3)o2)c1` [Compound 687], the “GATA2 inhibition” value in series [4] is “GATA2 inhibitors”. Besides, the “activity against GATA3” value in series [5] (10 μM) was “inactive against GATA3”.

`FC(F)(F)c1cccc(/C=C/c2nc(-c3ccccc3)c(-c3ccccc3)o2)c1` [Compound 693]: the “GATA2 inhibition” value in series [4] is on record as “GATA2 inhibitors”. In series [3], the “activation of hSTING in ISRE-luc reporter assay” value was “activate hSTING”. For the same compound, the “activity against GATA3” value in series [5] (10 μM) was “inactive against GATA3”.

With `COc1ccc(-c2nc(Cc3c[nH]c4ccccc34)oc2-c2ccc(O)cc2)cc1` [Compound 697], the “ETV1 inhibition” value in series [2] is on record as “ETV1 inhibitors”. Further, in series [1], the “ERG inhibition” value is listed as “ERG inhibitors”.

As to `COc1ccc(-c2oc(Cc3c[nH]c4ccccc34)nc2-c2ccc(O)cc2)cc1` [Compound 699], the “ERG inhibition” value in series [1] is recorded as “ERG inhibitors”.

`O=C1Nc2ccccc2C1Cc1nc(-c2ccccc2)c(-c2ccccc2)o1` (stereo not drawn) [Compound 700]: the “ETV1 inhibition” value in series [2] was “ETV1 inhibitors”.

Consider `c1ccc(-c2nc(Cc3c[nH]c4ccccc34)oc2-c2ccccc2)cc1` [Compound 708], for which the “ETV1 inhibition” value in series [2] was “ETV1 inhibitors”.

On to `O=C1Nc2ccccc2C1CCCc1nc(-c2cccc(F)c2)c(-c2cccc(F)c2)o1` (stereo not drawn) [Compound 770], for which the “GATA2 inhibition” value in series [4] is reported as “GATA2 inhibitors”. Besides, the “activation of hSTING in ISRE-luc reporter assay” value in series [3] is on record as “activate human STING (hSTING)”. Besides, in series [5] (compounds at 5 μM), the “activity against GATA3” value was “inactive against GATA3”.

As to `c1ccc(-c2nc(CNCCc3c[nH]c4ccccc34)oc2-c2ccccc2)cc1` [Compound 795], the “activation of hSTING and/or mSTING in ISRE-luc reporter assay” value in series [6] is reported as “activate hSTING and/or mSTING”. The “GATA2 inhibition” value in series [4] was “GATA2 inhibitors”. Further, the “activity against GATA3” value in series [5] (10 μM) is “inactive against GATA3”.

For `COc1cccc(-c2oc(CCCc3c[nH]c4ccccc34)nc2-c2ccc[nH]2)c1` [Compound 830], the “ETV1 inhibition” value in series [2] is “ETV1 inhibitors”. Further, the “GATA2 inhibition” value in series [4] is recorded as “GATA2 inhibitors”. The “activation of hSTING in ISRE-luc reporter assay” value in series [3] is listed as “activate hSTING”.

`Fc1cccc(-c2oc(Cc3c[nH]c4ccccc34)nc2-c2ccco2)c1` [Compound 838]: the “ETV1 inhibition” value in series [2] is given as “ETV1 inhibitors”. Besides, in series [4], the “GATA2 inhibition” value was “GATA2 inhibitors”. Further, in series [3], the “activation of hSTING in ISRE-luc reporter assay” value is recorded as “activate hSTING”.

Consider `C(=N\c1oc(-c2ccccc2)nc1Sc1ccccc1)/c1ccccc1` [Compound V151], for which the “ERG inhibition” value in series [1] is “ERG inhibitors”.

The values above are taken from patent US10844051B2, “Substituted oxazoles for the treatment of cancer” (THE ROYAL INSTITUTION FOR THE ADCANCEMENT OF …, priority 2015, dated 2020).
